In patent US20250345330A1 (Veradermics, Incorporated, priority 2024, published 2025):
Like-named read-outs stand apart in the source and are kept apart here.

Legend:
Chinese hamster cells = conditions: long exposure times; cited from earlier work
rats [1] = conditions: cited from earlier work
rats [2] = conditions: two-year, oral administration; cited from earlier work
[3] = test system: person with androgenetic alopecia; assay: Case studies: oral minoxidil in male patients with androgenetic alopecia (blood pressure, heart rate, hair growth); conditions: 1.25 mg QID
[4] = cited from earlier work
[5] = initially; chronic therapy; cited from earlier work
[6] = cited from earlier work; for Cmax: tablets, healthy subjects
[7] = primarily conjugation with glucuronic acid; cited from earlier work
male adults with AGA = conditions: 5 mg oral at bedtime; 24 weeks; cited from earlier work

Nc1cc(N2CCCCC2)nc(N)[n+]1[O-] [Minoxidil, minoxidil]
Cytogenetic assay result (Chinese hamster cells): equivocal result
Fetal resorption (rats [1]): not seen in rats
Carcinogenicity findings (rats [2]): no positive findings
Adverse events [3]: No unwanted hair growth or other adverse events
Radioactivity found in feces ([4]; human, in vivo): 3%
Radioactivity recovered from urine, in total ([4]; human, in vivo): 97%
Radiolabeled minoxidil and metabolites recovered from urine ([4]; within 24 h after oral administration): Over 80%
Temporary decrease in hematocrit, hemoglobin, and erythrocyte count (hemodilution) [5]: approximately 7%
Dose dependence of PK ([6]; 2.5 mg, 5 mg, or 10 mg oral, healthy volunteers): dose-independent PK
Duration of plasma concentrations above 20 ng/mL ([6]; 5 mg dose level): around 1 h
Duration of plasma concentrations above 20 ng/mL ([6]; 10 mg dose level): around 2 h
Cmax ([6]; 2.5 mg): 16.8 ng/mL
Cmax ([6]; 5 mg): 37.2 ng/mL
Cmax ([6]; 10 mg): 74.7 ng/mL
Fraction of oral minoxidil metabolized [7]: About 90%
Cardiovascular outcomes (male adults with AGA): No adverse cardiovascular outcomes were observed
